Legend:
[1] = Flavourist tasting: umami and salt intensity of solution B versus reference solution A; format: in vivo; details: scale -3 (much lower than base) to 3 (much higher), average of 4 flavourists
Excerpt: The samples were tasted by a small group of flavourists (2 male, 2 female, aged between 30 and 60). The intensity of the umami and salt taste of solution B was compared with that of the reference (solution A) and rated according to the following intensity scale: […]

[2] = Flavourist comparison of test white sauce with reference white sauce; format: in vivo; details: 4 flavourists
Protocol: A white sauce mix was prepared from 380 g of modified starch Prejel, 200 g of whey powder Esprion 300, 200 g of fat powder (ex DMV), 115 g of sodium chloride, 85.3 g of maltodextrin 14, 3 g of onion powder, 0.2 g of curcuma extract powder (ex turmeric), 1.5 g of white pepper and 15 g of probase high impact.
80 g of the well-mixed ingredients was added to 1 L of boiling water and stirred well.

[3] = Flavourist tasting: enhancement effect on NaCl, MSG and ribonucleotides; format: in vivo; details: effect marked between 0 and 10
Protocol: Six solutions were prepared: • A a solution of 0.5% NaCl • B a solution of 0.5% NaCl and 0.03% MSG • C a solution of 0.5% NaCl and 0.015% ribonucleotides • D a solution of 0.5% NaCl and 10-50 ppm Example 1 compound • E a solution of 0.5% NaCl and 0.03% MSG and 10-50 ppm Example 1 compound • F a solution of 0.5% NaCl and 0.015% ribonucleotides and 10-50 ppm Example 1 compound The samples were tasted by a group of 5-10 flavourists aged between 30 and 60. The taste of solution D is compared with that of A to determine the enhancement effect of Example 1 compound on NaCl. Similarly, solution E is compared with solution B and solution F with solution C to determine the enhancement effect of Example 1 compound on MSG and ribonucleotides respectively. The effect is marked between 0 and 10, the greater the value the greater the effect.

[4] = Flavourist comparison of test bouillon with reference bouillon; format: in vivo; details: 200 ppm in bouillon; 4 flavourists
Protocol: A bouillon mix was prepared from 155.0 g of sodium chloride, 157.0 g of dextrose monohydrate (ex Tapioca), 0.2 g of celery oleoresin, 0.3 g of oleoresin turmeric Vegex, 0.2 g of oleoresin coriander seed, 444.8 g maltodextrin 5-8 DE, 40.0 g vegetable oil soya bean refined, 30.0 g yeast standard light, 4.0 g of onion powder, 4.0 g of garlic powder, 0.5 g of white pepper and 164.0 g of potato starch.
32 g of the well-mixed ingredients was added to 1 L of boiling water and stirred until completely dissolved.

[5] = Flavourist comparison of test Béchamel sauce with cheese with reference sauce; format: in vivo; details: 4 flavourists
Protocol: A Béchamel sauce with cheese was prepared from 70 g of butter, 50 g of flower, 1000 g of milk, 5 g of sodium chloride, 0.3 g of MSG, 0.15 g of nutmeg powder, 0.25 g of black pepper and 80 g of cheese powder. A blanc roux was prepared from the butter and flower before adding the other ingredients.

[6] = background statement, cited from earlier work; for umami taste: aspartic acid at concentrations comparable to MSG
[7] = 10 ppm in 0.5% NaCl and 0.03% MSG
[8] = 20 ppm in 0.5% NaCl and 0.03% MSG

For Cl.NC(CC(C(=O)O)c1ccccc1)C(=O)O (centres unmarked) [2-amino-4-phenylpentanedioic acid, HCl, 2-amino-4-phenylpentanedioic Acid, HCl], the “Intensity Taste Salt (NaCl)” value [1, 7] was 0.67 and the “Intensity Taste Umami” value [1, 7] was 0.00.
For NC(CC(C(=O)O)C(=O)O)C(=O)O (racemic) [gamma-carboxy-DL-glutamic acid, Gamma-Carboxy-DL-Glutamic Acid], the “taste of test white sauce compared with reference white sauce” value ([2]; 250 ppm in white sauce) was “more umami, more metallic, fuller, more long-lasting and slightly more salivating than the reference white sauce”, the “NaCl Taste” value ([3]; 10 ppm in 0.5% NaCl (solution D versus A, reference 0.0)) was 2.0 and the Ribo taste ([3]; 10 ppm in 0.5% NaCl and 0.015% ribonucleotides (solution F versus C, reference 5.0)) was 5.5. The MSG taste ([3]; 10 ppm in 0.5% NaCl and 0.03% MSG (solution E versus B, reference 5.0)) was 5.5, the “Intensity Taste Salt (NaCl)” value [1, 7] was 0.67 and the “Intensity Taste Umami” value [1, 7] was 0.67. For the same compound, the “taste of test bouillon compared with reference bouillon” value [4] was “more umami, slightly more bitter, had more an ionic effect and salivating aftertaste than the reference bouillon” and the “taste of test Béchamel sauce with cheese compared with reference” value ([5]; 350 ppm in Béchamel sauce with cheese) was “more metallic, more ionic, more long-lasting and had more salivating effect than the reference Béchamel sauce”.
For NC(CC(O)C(=O)O)C(=O)O (centres unmarked) [4-hydroxyglutamic acid, 4-hydroxyglutamic Acid], the “taste of test white sauce compared with reference white sauce” value ([2]; 300 ppm in white sauce) was “had an enhanced body of salt and was more salivating and umami-like than the reference white sauce”, the “NaCl Taste” value ([3]; 50 ppm in 0.5% NaCl (solution D versus A, reference 0.0)) was 1.7 and the Ribo taste ([3]; 50 ppm in 0.5% NaCl and 0.015% ribonucleotides (solution F versus C, reference 5.0)) was 7.0. For the same compound, the MSG taste ([3]; 50 ppm in 0.5% NaCl and 0.03% MSG (solution E versus B, reference 5.0)) was 5.7, the “Intensity Taste Salt (NaCl)” value [1, 7] was 0.50 and the “Intensity Taste Umami” value [1, 7] was 0.50. For the same compound, the “taste of test bouillon compared with reference bouillon” value [4] was “had an enhanced body of salt and was more salivating and more savoury-lingering than the reference bouillon” and the “taste of test Béchamel sauce with cheese compared with reference” value ([5]; 400 ppm in Béchamel sauce with cheese) was “had more body, more mouthfullness and was creamier than the reference Béchamel sauce”.
In the case of N[C@@H](CC(=O)O)C(=O)O [aspartic acid], the umami taste [6] is listed as “hardly any umami taste”.
In the case of CC(=O)[O-].[Na+] [Sodium acetate], the “taste of salts compared with sodium chloride” value [6] is given as “hardly any taste”.
In the case of N[C@@H](CCC(=O)O)C(=O)[O-].[Na+] [MSG, monosodium glutamate], the umami taste [6] is listed as “highly potent umami tastant”.
For CC(CC(N)C(=O)O)C(=O)O (centres unmarked) [2-amino-4-methylpentanedioic acid, 2-amino-4-methylpentanedioic Acid], the “Intensity Taste Salt (NaCl)” value [1, 8] was 1.00 and the “Intensity Taste Umami” value [1, 8] was 1.25.
In the case of [Cl][Pb][Cl] [Lead chloride], the “taste of salts compared with sodium chloride” value [6] is given as “tasting sweet”.
For [Cl-].[K+] [Potassium chloride], the “taste of salts compared with sodium chloride” value [6] is listed as “somewhat salty but clearly more bitter”.
For O=C([O-])[C@H](O)[C@@H](O)[C@H](O)[C@H](O)CO.[Na+] [sodium gluconate], the “taste of salts compared with sodium chloride” value [6] is listed as “hardly any taste”.

Source: patent US20140272065A1, “ORGANIC COMPOUNDS” (Givaudan S.A., priority 2011, published 2014)
